Patent US10479792B2, “Compounds” (GlaxoSmithKline Intellectual Property Development Limited, priority 2015, dated 2019)

Tests used:
[1] = system: RnH9c2 cells; test: Trypanosoma cruzi intracellular assay (Assay 2), host cell cytotoxicity; type: cell-based; conditions: rat, H9C2 cardiomyocytes infected with Trypanosoma cruzi, 72 h incubation, read-out: cytotoxicity against RnH9c2 cells, pEC50 (converted)
Description: (§1) Compounds were dispensed into black 384-well assay plates (Greiner) by acoustic dispensing (LabCyte ECHO). For potency determinations, eleven-point, one in three dilution curves were generated, with a top concentration of 50 μM. H9C2 rat cardiomyocytes cells were dispensed in T225 tissue culture flasks and after 4 hours they were infected during 18 hours with T. cruzi trypomastigotes in the same T225 tissue culture flasks at a multiplicity of infection of 1. Next, any remaining free trypomastigotes were washed away with PBS and the infected H9C2 cells were harvested by trypsinisation. The infected H9C2 cells were then plated into 384-well plates containing the compounds to be tested, at 2500 cells per well in DMEM media with 2% FBS, 1% Penicillin/Streptomicin, 2 mM L-Glutamine, 1 mM Na Pyruvate and 25 mM HEPES. After 72 h incubation at 37° C. in presence of 5% CO2, the plates were fixed and stained with 4% formaldehyde and 2 μM Draq5 for 3 hours at room temperature. The plates were imaged on a Perkin Elmer Opera high-content imaging system using a 20× air objective. Images were analyzed using the Acapella building blocks system (Perkin Elmer). The image analysis algorithm first identified the H9C2 nuclei followed by demarcation of the cytoplasm and identification of intracellular amastigotes. This algorithm reported mean number of parasites per H9C2 cell, the percentage of infected H9C2 cells and the total number of H9C2 cells.

[2] = system: Leishmania donovani; test: Intramacrophage Leishmania donovani assay (Assay 1), average number of amastigotes per cell (potency readout); type: cell-based; conditions: THP-1, 96 h, amastigotes in PMA-differentiated THP-1 macrophages, 96 h incubation, read-out: pEC50 value against Leishmania donovani (converted)
Description: Assay 1. Intramacrophage Leishmania donovani Assay
The intramacrophage Leishmania assay was performed using a modified version of the method described in De Rycker et al. (Antimicrob Agents Chemother. 2013 July; 57(7):2913-22. Comparison of a high-throughput high-content intracellular Leishmania donovani assay with an axenic amastigote assay. De Rycker M, Hallyburton I, Thomas J, Campbell L, Wyllie S, Joshi D, Cameron S, Gilbert I H, Wyatt P G, Frearson J A, Fairlamb A H, Gray D W.). Procedure: 350 nl of compound was pre-dispensed into 384 well sterile intermediary plates. For single point screening, amphotericin B was added to all wells of column 24 as a positive control (final concentration 2 μM) and DMSO to column 23. For potency determinations, ten-point, one in three dilution curves were created with the highest concentration being 50 μM and on each plate a control curve of amphotericin B was included. Controls were as follows: columns 11 and 12: DMSO, columns 23 and 24: amphotericin B (final concentration 2 μM). To the intermediary plates, 35 μl of THP-1 media was added and plates were shaken for >5 min to ensure complete mixing. THP-1 cells (8,000 per well, 50 μl) were plated into black clear-bottom 384 well plates (Corning) in presence of 20 nM PMA. After 20 min at RT, the plates were incubated at 37° C. under 5% CO2 in a humidified incubator for 75 h. The cells were then washed with […] sterile phosphate buffered saline (PBS) supplemented with 1 mM CaCl2, 0.5 mM MgCl2, 0.1% (w/v) bovine serum albumin (PBS-A) and amastigotes were added to all wells at a multiplicity of infection of 5 (40,000 amastigotes per well). After 40 min at RT, plates were returned to the incubator. Amastigotes were incubated in the presence of THP-1 macrophages for 16 h. Any remaining extracellular amastigotes were subsequently removed with an overflow wash of 1 mL PBS-A per well (wash buffer is being aspirated from the top of the well as it is being dispensed) followed by addition of 25 μl of the compound pre-dilutions using a Fluidx Ipette-pro pipetting station. The final dilution of each compound was 200-fold. Plates were incubated for 96 h and then washed (250 μl PBS-A) and fixed (4% (v/v) formaldehyde-PBS, 30 min, RT). After fixation, the wells were washed with 250 μl PBS, stained (10 μg/mL DAPI, 0.4 μg mL-1 HCS Cellmask Deep Red in PBS+0.1% (v/v) Triton X-100, 30 min, RT) and washed with 250 μl PBS. Finally, PBS+0.05% (v/v) thimerosal was added to the wells, the plates were sealed and imaged on a high-content microscope (GE IN Cell 2000) using a 10× objective. Image analysis was carried out with GE IN Cell Analyzer 1000 Workstation using the “Multi Target Analysis” module. Settings for segmentation were as follows: nuclei: minimum area: 142.384 μm2, sensitivity: 81, method: top-hat; cells: characteristic area: 2500 μm2, sensitivity: 60, method: multiscale top-hat; organelles (amastigotes): granule size 1-3, 3 scales, sensitivity: 90, detection in entire cell. For each well, i) THP-1 cell count (cytotoxicity readout) and ii) average number of amastigotes per cell (potency readout) were calculated, both in terms of pEC50 values.

[3] = system: Leishmania donovani; test: Leishmania donovani intracellular assay (Assay 5); type: cell-based; conditions: THP-1, 96 h, eGFP amastigotes in THP-1 cells, 96 h incubation, read-out: pEC50 value against Leishmania donovani (converted)
Description: (§2) Assay 5. Leishmania donovani Intracellular Assay
(§3) Compounds were dispensed into black 384-well assay plates (Greiner) by acoustic dispensing (LabCyte ECHO). For potency determinations, eleven-point, one in three dilution curves were generated, with a top concentration of 50 μM. THP-1 human monocytes cells were dispensed in T225 tissue culture flasks and differentiated using 30 nM of PMA, after 24 hours they were infected overnight using Leishmania donovani expressing Green Fluorescent Protein (eGFP) amastigotes in the same T225 tissue culture flasks at a multiplicity of infection of 10. Next, any remaining free amastigotes were washed away with PBS and the infected THP-1 cells were harvested by trypsinisation. The infected cells were then plated into 384-well plates containing the compounds to be tested, at 3000 cells per well in RPMI media with 2% FBS and 25 mM Sodium bicarbonate. After 96 h incubation at 37° C. in presence of 5% CO2, the plates were fixed with 4% formaldehyde for 30 minutes, washed with PBS and stained with 0.1 mg/mL of DAPI for 30 minutes and washed again with PBS. The plates were imaged on a Perkin Elmer Opera high-content imaging system using a 20× air objective with two expositions, one for DAPI stain and other for eGFP. Images were analysed using the Acapella building blocks system (Perkin Elmer). The image analysis algorithm first identified the THP-1 nuclei followed by demarcation of the cytoplasm and identification of intracellular amastigotes. This algorithm reported mean number of parasites per THP-1 cell, the percentage of infected THP-1 cells and the total number of THP-1 cells.

[4] = system: THP-1 cells; test: Leishmania donovani intracellular assay (Assay 5), THP-1 cytotoxicity; type: cell-based; conditions: human, 96 h incubation, read-out: cytotoxicity against THP-1 cells, pEC50 (converted)
Description: as §2, §3

[5] = system: Trypanosoma cruzi; test: Trypanosoma cruzi intracellular assay (Assay 2); type: cell-based; conditions: infected H9C2 rat cardiomyocytes, 72 h incubation, read-out: pEC50 value against Trypanosoma cruzi (converted)
Description: as §1

[6] = Solubility assay, ChemiLuminescent Nitrogen Detection (CLND) (Assay 4); type: physicochemical; conditions: phosphate buffered saline (PBS) pH 7.4, aqueous buffer, kinetic from dmso stock, PBS pH 7.4, from 10 mM DMSO stock, 1 h at room temperature
Description: Assay 4. Solubility Assay—ChemiLuminescent Nitrogen Detection (CLND) I. Compounds A 10 mM DMSO stock solution of the compound was prepared. Solvents and Buffers Organic solvents of HPLC grade were used. Ultra pure water (Milli-Q grade) was used. Buffers were prepared with ultra pure water and filtered using 0.45μ cameo filters. Aqueous Buffer Solution: Phosphate Buffer Saline (PBS) @ pH 7.4 was prepared from Sigma dry powder packs, P-3813. Each one was diluted to 1 liter with deionised water. The pH was checked before the solution was used II. Procedures. • a) DMSO concentration was measured. DMSO blanks and ondansetron and caffeine standards were added to the plate (column 12, A, B, C, & D for the blanks and E, F, G, & H for the standards). Plates were covered with foil. When the UV and CLND detectors baselines appeared to be stable, the CLND was zeroed. • b) Once DMSO concentration measurements were complete, a filtration plate was prepared from each parent plate by diluting 5 μl of the 10 mM DMSO stock solution to […] with pH7.4 PBS. • c) After the plates were prepared, they were covered with a plate lid and left to incubate for 1 h at room temperature. • d) Sample was filtered using MILLIPORE MultiScreen Solubility (MSSLBPC10) Filtration Plates, to NUNC V well plates. […]

Row | SMILES | EC50 at 72 h [1] | EC50 [2] | EC50 [3] | EC50 at 96 h [4] | EC50 [5] | solubility at 1 h [6]
1 | O=C(Nc1ccc(F)c(-c2cnn3c(-c4ccccc4)cnc3n2)c1)N1CCCC1 [Example 7, N-(4-fluoro-3-(7-phenylimidazo[1,2-b][1,2,4]triazin-3-yl)phenyl)pyrrolidine-1-carboxamide] | 20 µM | 0.251 to 10 µM | – | – | – | –
2 | O=C(Nc1ccc(F)c(-c2ccn3ccnc3n2)c1)N1CCCC1 [Example 16, N-(4-fluoro-3-(imidazo[1,2-a]pyrimidin-7-yl)phenyl)pyrrolidine-1-carboxamide] | – | 12.6 to 20 µM | 12.6 to 39.8 µM | 12.6 to 50.1 µM | – | –
3 | C[C@H]1CCCN1C(=O)Nc1ccc(F)c(-c2ccn3c(N4CCOCC4)cnc3n2)c1 [Example 33a] | – | > 50.1 µM | 12.6 to 39.8 µM | – | 12.6 µM | –
4 | O=C(Nc1ccc(F)c(-c2ccn3c(-c4ccccn4)cnc3n2)c1)N1CCCC1 [Example 26, N-(4-fluoro-3-(3-(pyridin-2-yl)imidazo[1,2-a]pyrimidin-7-yl)phenyl)pyrrolidine-1-carboxamide] | 39.8 µM | 0.251 to 10 µM | 0.126 to 10 µM | 12.6 to 50.1 µM | – | –
5 | O=C(Nc1cccc(-c2ccn3c(-c4ccccc4)cnc3n2)c1)N1CCCC1 [Example 2, N-(3-(3-phenylimidazo[1,2-a]pyrimidin-7-yl)phenyl)pyrrolidine-1-carboxamide] | – | 0.251 to 10 µM | 0.126 to 10 µM | 12.6 to 50.1 µM | – | –
6 | Cc1cccc(-c2cnc3nc(-c4cc(NC(=O)N5CCCC5)ccc4F)ccn23)n1 [Example 37, N-(4-fluoro-3-(3-(6-methylpyridin-2-yl)imidazo[1,2-a]pyrimidin-7-yl)phenyl)pyrrolidine-1-carboxamide] | 25.1 µM | – | 0.126 to 10 µM | 12.6 to 50.1 µM | – | –
7 | CC(C)Cc1cnc2nc(-c3cc(NC(=O)N4CCCC4)ccc3F)ccn12 [Example 17, N-(4-fluoro-3-(3-isobutylimidazo[1,2-a]pyrimidin-7-yl)phenyl)pyrrolidine-1-carboxamide] | 5.01 µM | 0.251 to 10 µM | 0.126 to 10 µM | – | – | –
8 | COc1cccc(-c2cnc3nc(-c4cc(NC(=O)N5CCCC5)ccc4F)ccn23)n1.Cl [Example 28, N-(4-fluoro-3-(3-(6-methoxypyridin-2-yl)imidazo[1,2-a]pyrimidin-7-yl)phenyl)pyrrolidine-1-carboxamide] | 7.94 µM | – | 0.126 to 10 µM | 12.6 to 50.1 µM | – | < 1 µM
9 | O=C(Nc1ccc(F)c(-c2ccn3c(N4CCOCC4)cnc3n2)c1)N1CC[C@H](F)C1 [Example 23a] | – | > 50.1 µM | > 50.1 µM | – | 31.6 µM | –
10 | O=C(Nc1ccc(F)c(-c2ccn3c(N4CCCCC4)cnc3n2)c1)N1CCCC1 [Example 5, N-(4-fluoro-3-(3-(piperidin-1-yl)imidazo[1,2-a]pyrimidin-7-yl)phenyl)pyrrolidine-1-carboxamide] | – | 0.251 to 10 µM | 0.126 to 10 µM | 12.6 to 50.1 µM | – | –
11 | O=C(Nc1ccc(F)c(-c2ccn3c(C4CCOCC4)cnc3n2)c1)N1CCCC1 [Example 19, N-(4-fluoro-3-(3-(tetrahydro-2H-pyran-4-yl)imidazo[1,2-a]pyrimidin-7-yl)phenyl)pyrrolidine-1-carboxamide] | 39.8 µM | 0.251 to 10 µM | 0.126 to 10 µM | – | – | –
